# Measured values as given in US20210253643A1, “HYDROPHOBIC BIOMOLECULE STABILIZING SCAFFOLD PEPTIDES AND METHODS OF MAKING AND USING SAME” (The University of British Columbia, priority 2018, published 2021).
# No end group written: not given here.
# Key:
# [1] = Peptide solubility by turbidity of peptide suspensions at 550 nm; conditions: for Solubility: Experiment #1, score 1 to 5, turbidity at 550 nm; for Solubility (/5): Experiment #2, score 1 to 5
# Experimental: The solubility of the peptides was determined by measuring the turbidity of each of the peptide suspensions at 550 nm. The numbers 1 to 5 were used denote the degree of solubility, where 1 means poor solubility and 5 means high solubility.
# [2] = system: membrane proteins MsbA and FhuA; test: On-gel reconstitution efficiency of membrane proteins; type: biochemical, E. coli; parameters: key: 1 means poor reconstitution; 5 means efficient reconstitution
# Experimental: Bands were visualized by Coomassie Blue G250 staining.
# (§1) Table 10 summarizes the biophysical, structural and experimental characteristics of the tested NSP peptide variants. […] The number of inter-helix salt bridges formed between the AH1 and AH2 regions for each of the tested amphipathic peptide variants was also determined.
# [3] = biological target: T1, photosynthetic bacterial reaction center (BRC) (Cereibacter sphaeroides, UniProt P0C0Y7+P0C0Y8+P0C0Y9); test: Thermostability of the BRC complex (absorbance at 803 nm after incubation at 65° C.); type: physicochemical, Rhodobacter sphaeroides; conditions: 0.03% LDAO
# T1 construct: placed on H from own knowledge of pIND4-RC1; made in house; host or cells: Rhodobacter sphaeroides RcX (ΔpuhA, ΔpufQBALMX, ΔrshI, ΔppsR), plasmid pIND4-RC1
# Experimental: Reconstitution of the BRC in peptidiscs, low lipid nanodiscs, and styrene maleic acid nanoparticles: The purified BRC complex (1 mg/mL) was mixed at a 1:1.8 (μg/μg) ratio with NSPr followed by 10-fold dilution in Buffer A to decrease the LDAO concentration to 0.003%. For formation of low-lipid nanodiscs, the purified BRC complex was instead mixed at a 1:2 (mol/mol) ratio with MSP1D1 before dilution. Alternatively, an equivalent amount of BRC was diluted in Buffer A supplemented with 0.03% LDAO, 0.02% DDM, 0.1% SMA or 0.1% SDS as described. After incubation for 10 minutes on ice, aggregated proteins were removed by centrifugation (13,000×g, 10 min at 4° C.). […]
# Absorbance spectroscopy: Absorption spectra were recorded using a Hitachi U-3010 spectrophotometer. A blank measurement was recorded in Buffer A(+0.03% LDAO for detergent purified BRC). Samples were incubated in a PCR thermocycler at the indicated temperature, and then measured at the desired time points in a quartz cuvette at room temperature. […]
# The photosynthetic bacterial reaction center (BRC) from Rhodobacter sphaeroides was reconstituted into peptidiscs using NSPr. FIG. 21A illustrates the absorbance scans of the BRC (1 μM) in detergent solution (0.03% LDAO (lauryldimethylamine oxide)) and in peptidisc. Scans were normalized to the value measured at 803 nm (the absorbance peak of the accessory bacteriochlorophylls). […]
# membrane proteins = test: Competition with equimolar NSPr-FAM during on-gel reconstitution of membrane proteins; type: biochemical; conditions: 0 no competition, 100 full competition
# Experimental: as §1
# [4] = Experiment #1, score 1 to 5, on-gel, MsbA and FhuA
Compound,Solubility (/5) [1],also measured
"FAEKFKEAVKDYFAKFWDGAAEKLKEAVKDYFAKLWD [NSPr-G, FAEKFKEAVKDYFAKFWD G AAEKLKEAVKDYFAKLWD]",,Solubility [1]: 5
"DWLKAFYDKVAEKLKEAAPDWFKAFYDKVAEKFKEAF [NSP, DWLKAFYDKVAEKLKEAA P DWFKAFYDKVAEKFKEAF]",3 /5,
FAEKFKEAVKDYFAKFWD P AAEKLKEAVKDYFAKLWD-pyrenebutyric acid [NSPr-pyrene],5,"Reconstitution Efficiency (/5) [2, 4]: 4 /5; Reconstitution Efficiency (/5) ([2]; Experiment #2, score 1 to 5): 4 /5; Solubility [1]: 5"
"CCCCCCCCCCCC[N+](C)(C)[O-] [LDAO, lauryldimethylamine oxide]",,Time to full denaturation of BRC [3]: less than 4 minutes
"FAEKFKEAVKDYFAKFWDPAAEKFKEAVKDYFAKLFD [Peptide 4F-3F, FAEKFKEAVKDYFAKFWD P AAEKFKEAVKDYFAKLFD]",4 /5,
"FAERFREAVRDYFARFWDPAAERLREAVRDYFARLWD [Pos Switch, FAERFREAVRDYFARFWD P AAERLREAVRDYFARLWD]",5,
"FAEKLKEAVKDYLAKFWDPAAEKLKEAVKDYFAKLWD [Peptide 2F-1F, FAEKLKEAVKDYLAKFWD P AAEKLKEAVKDYFAKLWD]",5,
"FAEKFKEAVKDYFAKFWDPAAEKLKEAVKDYFAKLW [NSPr-36, FAEKFKEAVKDYFAKFWD P AAEKLKEAVKDYFAKLW]",3 /5,
"FAEAFKEAVKDYFAKFWDPAAEKLKEAVKDYFAKLWD [1 SB Disruption, FAEAFKEAVKDYFAKFWD P AAEKLKEAVKDYFAKLWD]",5,
"WAEKFKEAVKDYWAKFWDPAAEKLKEAVKDYWAKLWD [Phe/Trp Switch, WAEKFKEAVKDYWAKFWD P AAEKLKEAVKDYWAKLWD]",4 /5,
"CC(C)C[C@H](NC(=O)[C@H](CCCCN)NC(=O)[C@H](C)NC(=O)[C@H](Cc1ccccc1)NC(=O)[C@H](Cc1ccc(O)cc1)NC(=O)[C@H](CC(=O)O)NC(=O)[C@H](CCCCN)NC(=O)[C@@H](NC(=O)[C@H](C)NC(=O)[C@H](CCC(=O)O)NC(=O)[C@H](CCCCN)NC(=O)[C@H](CC(C)C)NC(=O)[C@H](CCCCN)NC(=O)[C@H](CCC(=O)O)NC(=O)[C@H](C)NC(=O)[C@H](C)NC(=O)[C@@H]1CCCN1C(=O)[C@H](CC(=O)O)NC(=O)[C@H](Cc1c[nH]c2ccccc12)NC(=O)[C@H](Cc1ccccc1)NC(=O)[C@H](CCCCN)NC(=O)[C@H](C)NC(=O)[C@H](Cc1ccccc1)NC(=O)[C@H](Cc1ccc(O)cc1)NC(=O)[C@H](CC(=O)O)NC(=O)[C@H](CCCCN)NC(=O)[C@@H](NC(=O)[C@H](C)NC(=O)[C@H](CCC(=O)O)NC(=O)[C@H](CCCCN)NC(=O)[C@H](Cc1ccccc1)NC(=O)[C@H](CCCCN)NC(=O)[C@H](CCC(=O)O)NC(=O)[C@H](C)NC(=O)[C@H](Cc1ccccc1)NC(=O)[C@@H](N)CS)C(C)C)C(C)C)C(=O)N[C@@H](Cc1c[nH]c2ccccc12)C(=O)N[C@@H](CC(=O)O)C(=O)O [NSPr-C, C FAEKFKEAVKDYFAKFWD P AAEKLKEAVKDYFAKLWD]",5,Solubility [1]: 5
"FAEAFKEAVKDYFAAFWDPAAEKLKEAVKDYFAKLWD [2 SB Disruption, FAEAFKEAVKDYFAAFWD P AAEKLKEAVKDYFAKLWD]",5,
"FAEKFKEAVKDQFAKFWDPAAEKLKEAVKDQFAKLWD [Tyr/Gln Switch, FAEKFKEAVKDQFAKFWD P AAEKLKEAVKDQFAKLWD]",4 /5,
"Ac-DWLKAFYDKVAEKLKEAAPDWFKAFYDKVAEKFKEAF-NH2 [Ac-NSP-NH2, Ac-DWLKAFYDKVAEKLKEAA P DWFKAFYDKVAEKFKEAF-NH2]",1,"Reconstitution Efficiency (/5) [2, 4]: 2 /5; Reconstitution Efficiency (/5) ([2]; Experiment #2, score 1 to 5): 2 /5; Competition peptide (% NSPr-FAM) (membrane proteins; Experiment #1, equimolar NSPr-FAM and variant): 10%; Competition NSPr-FAM (±10%) (membrane proteins; Experiment #2): 10%; Solubility [1]: 1"
"FAEKFKEAVKDYFAKFWDGAAEKLKEAVKDYFAKLWD [Pro/Gly Switch, FAEKFKEAVKDYFAKFWD G AAEKLKEAVKDYFAKLWD]",4 /5,
"FAEKLKEAVKDYFAKLWDPFAEKLKEAVKDYFAKLWD [Peptide 2F-2F, FAEKLKEAVKDYFAKLWD P FAEKLKEAVKDYFAKLWD]",4 /5,
Fam-FAEKFKEAVKDYFAKFWD P AAEKLKEAVKDYFAKLWD [NSPr-FAM],,"Reconstitution Efficiency (/5) [2, 4]: 5; Reconstitution Efficiency (/5) ([2]; Experiment #2, score 1 to 5): 5"
"CC(C)C[C@H](NC(=O)[C@H](CCCCN)NC(=O)[C@H](C)NC(=O)[C@H](Cc1ccccc1)NC(=O)[C@H](Cc1ccc(O)cc1)NC(=O)[C@H](CC(=O)O)NC(=O)[C@H](CCCCN)NC(=O)[C@@H](NC(=O)[C@H](C)NC(=O)[C@H](CCC(=O)O)NC(=O)[C@H](CCCCN)NC(=O)[C@H](CC(C)C)NC(=O)[C@H](CCCCN)NC(=O)[C@H](CCC(=O)O)NC(=O)[C@H](C)NC(=O)[C@H](C)NC(=O)[C@@H]1CCCN1C(=O)[C@H](CC(=O)O)NC(=O)[C@H](Cc1c[nH]c2ccccc12)NC(=O)[C@H](Cc1ccccc1)NC(=O)[C@H](CCCCN)NC(=O)[C@H](C)NC(=O)[C@H](Cc1ccccc1)NC(=O)[C@H](Cc1ccc(O)cc1)NC(=O)[C@H](CC(=O)O)NC(=O)[C@H](CCCCN)NC(=O)[C@@H](NC(=O)[C@H](C)NC(=O)[C@H](CCC(=O)O)NC(=O)[C@H](CCCCN)NC(=O)[C@H](Cc1ccccc1)NC(=O)[C@H](CCCCN)NC(=O)[C@H](CCC(=O)O)NC(=O)[C@H](C)NC(=O)[C@H](Cc1ccccc1)NC(=O)[C@H](Cc1c[nH]cn1)NC(=O)[C@H](Cc1c[nH]cn1)NC(=O)[C@H](Cc1c[nH]cn1)NC(=O)[C@H](Cc1c[nH]cn1)NC(=O)[C@H](Cc1c[nH]cn1)NC(=O)[C@@H](N)Cc1c[nH]cn1)C(C)C)C(C)C)C(=O)N[C@@H](Cc1c[nH]c2ccccc12)C(=O)N[C@@H](CC(=O)O)C(=O)O [NSPr-6xHis, HHHHHH FAEKFKEAVKDYFAKFWD P AAEKLKEAVKDYFAKLWD]",3 /5,
"FVEKFKEVAKDYFVKFWDPVVEKLKEVAKDYFVKLWD [Ala/Val Switch, FVEKFKEVAKDYFVKFWD P VVEKLKEVAKDYFVKLWD]",5,
"FAEKFKEAVKDYFAKFWDPFAEKFKEAVKDYFAKFWD [Peptide 4F-4F, FAEKFKEAVKDYFAKFWD P FAEKFKEAVKDYFAKFWD]",4 /5,
"FAEKFKEAVKDYFAKFWDPAAEKLKEAVKDYFAKFWD [Peptide 4F-2F, FAEKFKEAVKDYFAKFWD P AAEKLKEAVKDYFAKFWD]",4 /5,
"FAAKFKEAVKDYFAKFWDPAAEKLAEAVADYFAALWD [3 SB Disruption H2, FAAKFKEAVKDYFAKFWD P AAEKLAEAVADYFAALWD]",5,
"FAEKFKEAVKDYFAKLWDPAAEKLKEAVKDYFAKLWD [Peptide 3F-1F, FAEKFKEAVKDYFAKLWD P AAEKLKEAVKDYFAKLWD]",5,
"YAEKFKEAVKDYFAKFYDPAAEKLKEAVKDYFAKLWD [Phe/Tyr Switch, YAEKFKEAVKDYFAKFYD P AAEKLKEAVKDYFAKLWD]",4 /5,
"FADKFKDAVKEYFAKFWEPAADKLKDAVKEYFAKLWE [Neg Switch, FADKFKDAVKEYFAKFWE P AADKLKDAVKEYFAKLWE]",4 /5,
"FAEKFKEAVKPYFAKFWDPAAEKLKEAVKPYFAKLWD [NSPr-3P, FAEKFKEAVKPYFAKFWD P AAEKLKEAVKPYFAKLWD]",5,Solubility [1]: 5
